Measured values as given in article PMC6738096 (British Journal of Cancer, 2019).

Experiments:
[1] = Plasma exposure in mice of the Karpas-299 study
[2] = target: CYP3A4 (Homo sapiens, UniProt P08684); assay: biochemical
[3] = Telemetered dog cardiovascular study; assay type: in vivo
Description: Potential in vivo effects on the respiratory, central nervous and cardiovascular systems were evaluated in oral dose studies in rats and dogs.

[4] = system: calcium channel; assay: Functional patch-clamp test, calcium channel inhibition; assay type: cell-based

Chain of CYP3A4 (P08684 whole entry): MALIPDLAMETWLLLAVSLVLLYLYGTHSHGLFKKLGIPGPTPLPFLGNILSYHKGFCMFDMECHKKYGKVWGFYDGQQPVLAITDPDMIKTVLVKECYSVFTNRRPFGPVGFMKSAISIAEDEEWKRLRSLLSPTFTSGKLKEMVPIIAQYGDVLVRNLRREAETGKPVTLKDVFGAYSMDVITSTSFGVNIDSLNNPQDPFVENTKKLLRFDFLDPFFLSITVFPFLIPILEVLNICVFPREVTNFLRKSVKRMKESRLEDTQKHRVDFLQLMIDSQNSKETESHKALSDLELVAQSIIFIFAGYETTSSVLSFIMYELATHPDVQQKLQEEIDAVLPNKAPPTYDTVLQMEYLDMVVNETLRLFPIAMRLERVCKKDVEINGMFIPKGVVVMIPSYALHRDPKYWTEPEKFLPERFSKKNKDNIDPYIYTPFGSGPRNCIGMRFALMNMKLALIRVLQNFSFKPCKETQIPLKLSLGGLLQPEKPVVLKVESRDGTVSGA

**Q.** For `CC(C)NC(=O)[C@H]1CC[C@@H](n2c(NC(=O)c3ccc(F)cc3)nc3ccc(CN4CCC(C(C)(C)O)CC4)cc32)CC1` [TSR-011], which “Overall 24-h exposure” value ([1]; oral daily dosing of 60 mg/kg) is on record?
**A.** 15,500 ng×h/mL

**Q.** What about the Plasma concentration ([1]; oral dose 60 mg/kg, at 8 h) of the same compound?
**A.** 698.00 nM

**Q.** And the IC50 [2]?
**A.** 23.3 µM

**Q.** What about the “Reversibility of cardiovascular parameters” value ([3]; oral 3, 10 and 15 mg/kg) of the same compound?
**A.** returned to normal by the subsequent dose

**Q.** What about the PR interval ([3]; oral doses of 3, 10 and 15 mg/kg) of the same compound?
**A.** dose-dependent prolongation of the PR interval

**Q.** What about the Body temperature ([3]; oral, at 15 mg/kg) of the same compound?
**A.** mild and transient increase in body temperature

**Q.** And the QRS duration ([3]; oral, at 10 and 15 mg/kg)?
**A.** small and dose-dependent increase in QRS duration

**Q.** And the Heart rate ([3]; oral, at ≥ 3 mg/kg)?
**A.** Increased heart rate

**Q.** And the QTc ([3]; oral, at ≥ 3 mg/kg)?
**A.** prolonged QTc

**Q.** What about the Pulse pressure ([3]; oral, at ≥ 10 mg/kg) of the same compound?
**A.** decreased pulse pressure

**Q.** And the IC50 [4]?
**A.** > 10 µM
